From US20230365570A1, “COMPOUNDS WITH GLUCOCORTICOID SPARING EFFECTS AND USES THEREOF” (The Regents of the University of California, priority 2020, published 2023)

Experiments:
THP-1 cells [1] = experiment: CXCL8 production by LPS stimulated THP-1 cells (ELISA); assay type: cell-based, human; settings: LPS 10 ng/ml, purchased compound, mean LPS CXCL8 201.1 pg/ml = 100%
Method: (§1) THP-1 cells (10^5 cells/200 μL/well) and RA FLS (104/200 μL/well) were plated in 96 well plates and pre-treated with compound or vehicle for 1 h and then stimulated with either LPS (10 ng/ml), 1L-1ß (2 ng/ml) or TNF (2 ng/ml for THP-1 and 1 ng/ml for RA FLS). After 18 h of incubation, supernatants were collected and the levels of cytokines and chemokines in the culture supernatants were measured by ELISA according to the manufacturer's protocols (R&D systems, Minneapolis, MN).
The 122 hit compounds underwent additional screening and were evaluated for their effects on cell viability and the ability to suppress production of an NF-κB-associated chemokine, CXCL8 (IL-8) by LPS stimulated THP-1 cells (FIG. 2D). The cells were also examined for viability after 24 h of stimulation by MTT assay (FIG. 2E).
Three of the eleven chemotypes were excluded based on the potential for them to be Michael acceptors, In many cases α,β-unsaturated carbonyls such as those found in these chemotypes can form adducts with thiols, especially under physiological conditions (pH=6-8), reducing the in vivo efficacy. Also, Michael acceptors are often […] IKKß inhibitors and thereby inhibit NF-KB response. […]

THP-1 cells [2] = experiment: IL-1ß stimulated TNF release by THP-1 cells; assay type: cell-based, human; settings: THP-1 cells, IL-1ß 2 ng/ml, overnight (FIG. 3D)
Method: as §1
The lead compounds belonging to chemotypes 1, 3, and 5 were tested for potency in suppressing chemokine and cytokine production by THP-1 cells in the presence of different inflammatory stimuli. The production of CXCL8 induced by either LPS (10 ng/ml), IL-1ß (2 ng/ml), or TNF (2 ng/ml) and TNF induced by IL-1ß (2 ng/ml) was assessed using serially diluted compounds. The compounds except 1-2 reduced the level of CXCL8 production stimulated by LPS in a dose dependent manner (FIG. 3A). However, the compounds from chemotype 5 enhanced CXCL8 release by THP-1 cells when stimulated with IL-111, or TNF (FIGS. 3B, C). […] The 1Cs0 for 1-1, 1-2 and 3-1 for IL-1ß stimulated CXCL8 release included 400, 1770, and 2020 nM, respectively, (FIG. 3C).

THP-1 cells [3] = experiment: Combination and synergy of compounds with DEX, CXCL8 release by TNF stimulated THP-1 cells; assay type: cell-based, human
Method: Drug synergy analysis was performed using lsobologram plots which were calculated according to reported procedures to compute IC50 and determine synergism. IC50 is computed from the median effect equation. Synergism analysis is carried out using the Combination index (Cl)-isobol method. Data analysis was performed using the CompuSyn software available on combisyn.com, Detailed methodology was used as described in a prior report. Briefly, the median-effect equation is computed to obtain the linear regression for the effect of inhibitors DEX and 1−1 as Fa/Fu=(D/D50)^m, where D is the dose; Fa and Fu is the fraction of the inhibition and uninhibited response by the dose D (Fa+Fu=1); D50 is the dose producing the median effect (i.e, IC50). The constant m determines the shape of the dose-effect curve. The median-effect equation in logarithmic form is log (Fa/Fu) =m log(D)−m log (D50) which essentially represents a linear relationship between log(Fa/Fu) and log(D). […] This is followed by Cl-isobol method to quantitatively assess the synergism between these inhibitor drugs. A combination index (Cl) is estimated from dose-effect data of single and combined drug treatments. A value of C; less than one indicates synergism; Cl=1 indicates additive effect; and Cl>1 indicates antagonism. Drug interaction (synergism or antagonism) is more pronounced the further a CI value is from 1. […] The doses Dx1 and Dx2 were estimated from the median effect equation above for single drug treatments. From the median effect equation, the estimated dose (i.e., D) necessary to produce the inhibition (i.e., Fa, Fu) obtained by the combination was calculated. The results are presented as a normalized isobolograrn. A point in the isobologram represents the effect of a drug(s) treatment.
To assess whether the remaining candidate compounds would provide additional benefit to a low dose of glucocorticoid, THP-1 cells were stimulated with TNF and treated them with serially diluted compounds and 100 nM DEX (FIGS. 4A-C). […] Next whether there was an additive or synergistic effect with these three compounds and DEX was formally addressed. […] The four CXCL8 levels below the maximum plateau were used to calculate an isobologram (FIG. 5D).

RA FLS = experiment: Chemokine and cytokine production by TNF stimulated RA FLS; assay type: cell-based, human
From the text: Rheumatoid arthritis fibroblast-like synoviocytes (RA FLS) were isolated from synovial tissues derived from patients with RA when they underwent joint replacement surgery or synovectomy. Patients were age ≥18 years with active RA based on the ACR 1987 Revised Criteria and consent forms were completed by the patients before surgery. The study protocol was approved by the institutional review board at TokyoMedical andDental University, Tokyo, Japan and are in accordance with the principles of the Declaration of Helsinki. RA FLS were cultured in DMEM supplemented with 10% FBS, 100 U/mL penicillin, and 100 μg/mL streptomycin in a humidified 5% CO2 incubator. All experiments used proliferating RA FLS.
as §1
In the pathogenesis of rheumatoid arthritis, fibroblast-like synoviocytes (RA FLS) are a primary source of inflammatory cytokines and chemokines in inflamed joints. The immunomodulatory effects and cytotoxicity of compound 1-1 on RA FLS was analyzed. […] To assess the synergistic effect of compound 1-1 with DEX in RA FLS, IL-6 and CXCL8 suppression was analyzed by co-titrating DEX and compound 1-1 in cultures with TNF stimulated RA FLS (FIG. 7A, B).

[4] = molecular target: metabotropic glutamate receptor subtype 4 (mGluR4) (Homo sapiens, UniProt Q14833); settings: previously described in another system; cited from earlier work
Chain of metabotropic glutamate receptor subtype 4 (mGluR4) (Q14833 33-912): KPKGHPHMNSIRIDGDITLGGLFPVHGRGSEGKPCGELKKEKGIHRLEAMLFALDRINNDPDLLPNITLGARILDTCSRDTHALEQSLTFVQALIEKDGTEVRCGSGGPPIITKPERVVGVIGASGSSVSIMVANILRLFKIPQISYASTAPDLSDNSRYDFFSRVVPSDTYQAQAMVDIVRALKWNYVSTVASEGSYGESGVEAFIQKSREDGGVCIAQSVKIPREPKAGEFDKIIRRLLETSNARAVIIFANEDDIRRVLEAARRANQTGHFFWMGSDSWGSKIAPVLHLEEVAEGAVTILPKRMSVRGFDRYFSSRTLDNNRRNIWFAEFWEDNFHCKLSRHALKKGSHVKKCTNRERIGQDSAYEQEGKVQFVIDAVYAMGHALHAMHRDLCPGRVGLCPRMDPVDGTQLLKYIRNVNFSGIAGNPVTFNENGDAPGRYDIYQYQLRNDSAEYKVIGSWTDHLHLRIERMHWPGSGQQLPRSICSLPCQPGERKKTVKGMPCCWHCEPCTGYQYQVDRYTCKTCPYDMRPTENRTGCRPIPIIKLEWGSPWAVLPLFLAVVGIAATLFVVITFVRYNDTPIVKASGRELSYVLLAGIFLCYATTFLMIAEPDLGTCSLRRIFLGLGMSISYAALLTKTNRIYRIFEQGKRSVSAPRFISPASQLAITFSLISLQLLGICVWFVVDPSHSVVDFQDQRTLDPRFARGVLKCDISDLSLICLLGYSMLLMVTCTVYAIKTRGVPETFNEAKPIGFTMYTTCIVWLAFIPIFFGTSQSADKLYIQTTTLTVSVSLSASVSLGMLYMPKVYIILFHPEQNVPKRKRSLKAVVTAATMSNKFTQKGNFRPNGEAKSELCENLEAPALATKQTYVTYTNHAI

- IC50 (THP-1 cells [2]): 190 nM
- IC50 (THP-1 cells [3]; TNF stimulated THP-1 cells, single agents (FIG. 5A), read-out: IC50 for TNF stimulated CXCL8 release (titration with DEX)): 968 nM
- IC50 in RA FLS (RA FLS; comparable to that in THP-1): micromolar level
Structure (SMILES): Cc1ccc(-n2ncc3c(NC4CCCCC4)ncnc32)c(C)c1 [Compound 1-1]
- CXCL8 production. Relative to LPS (purchased) (THP-1 cells [1]): 47.1%
- Effect of addition of DEX on CXCL8 production (THP-1 cells [3]; TNF 2 ng/ml stimulated THP-1 cells, serially diluted compound plus 100 nM DEX (FIGS. 4A-C)): significantly reduced the CXCL8 production at all of the effective doses
- Synergy with DEX, isobologram of potency ratios for CXCL8 (THP-1 cells [3]; TNF stimulated THP-1 cells, compound and DEX titrated at same molarity (FIG. 5D)): demonstrating synergy
- CCL2 production induced by TNF (RA FLS; TNF 1 ng/ml overnight): dose-dependently suppressed
- CXCL1 production induced by TNF (RA FLS; TNF 1 ng/ml overnight): dose-dependently suppressed
- CXCL8 production induced by TNF (RA FLS; TNF 1 ng/ml overnight): dose-dependently suppressed
- IL-6 production induced by TNF (RA FLS; TNF 1 ng/ml overnight): dose-dependently suppressed
- MMP-3 production induced by TNF (RA FLS; TNF 1 ng/ml overnight): not
- Modulation of mGluR4 [4]: positive allosteric modulator
